Measurements as given in US4365989A, “2-Thiocyanomethylthio-4,4-dialkyl-5-substituted-thiazoline fungicides” (Chevron Research Company, priority 1982, dated 1982).

Tests used:
[1] = tested on: Lambsquarter (Chenopodium album); assay: Post-emergent herbicidal test, Lambsquarter; format: in vivo; settings: 504 h, post-emergence, 33 micrograms/cm^2, 3 weeks, read-out: Herbicidal Activity Post-Emergence % Control L'Qtr.
[2] = tested on: Soybean; assay: Post-emergent herbicidal test, Soybean; format: in vivo; settings: Glycine max, 504 h; post-emergence; 33 micrograms/cm^2; 3 weeks; read-out: Herbicidal Activity Post-Emergence % Control Soybean
[3] = tested on: Crabgrass (Digitaria sanguinalis); assay: Pre-emergent herbicidal test, Crabgrass; format: in vivo; settings: 504 h, pre-emergence, 33 micrograms/cm^2, 3 weeks
Experimental: (§1) An acetone solution of the test compound was prepared by mixing 750 mg of the compound, 220 mg of a nonionic surfactant and 25 ml of acetone. This solution was added to approximately 125 ml of water containing 156 mg of surfactant.
(§2) Seeds of the test vegetation were planted in a pot of […] and the test solution was sprayed uniformly onto the soil surface at a dose of 33 micrograms/cm^2. The pot was watered and placed in a greenhouse. […] At the end of this period, the herbicidal effectiveness of the compound was rated based on the physiological observations. A 0-to-100 scale was used, 0 representing no phytotoxicity, 100 representing complete kill.

[4] = tested on: Lambsquarter (Chenopodium album); assay: Pre-emergent herbicidal test, Lambsquarter; format: in vivo; settings: 504 h, pre-emergence, 33 micrograms/cm^2, 3 weeks, read-out: Herbicidal Activity Pre-Emergence % Control L'Qtr.
Experimental: as §1, §2

[5] = tested on: Plasmopara viticola; assay: Grape Downy Mildew control, detached grape leaves; format: in vivo; settings: in Vitis vinifera, Vitis vinifera Emperor detached leaves, read-out: % Control Grape D.M.
Experimental: The compounds of the invention were tested for the control of the grape downy mildew organism Plasmopara viticola. Detached leaves, between 70 and 85 mm in diameter, of 7-week old Vitis vinifera cultivar Emperor grape seedlings were used as hosts. The leaves were sprayed with a 250 ppm solution of the test compound in acetone. The sprayed leaves were dried, inoculated with a spore suspension of the organism, placed in a humid environmental chamber and incubated at 66° to 68° F. and about 100% relative humidity. After incubation for two days, the plants were then held in a greenhouse seven to nine days; then the amount of disease control was determined. The percent disease control provided by a given gest compound was based on the percent disease reduction relative to untreated check plants.

[6] = tested on: Botrytis Cineria; assay: Mycelial inhibition, Botrytis; format: cell-based; settings: 24 hours, relative to standard DIFOLATAN
Experimental: (§3) A number of the compounds of the present invention were evaluated for in-vitro fungicidal effectiveness by means of a mycelial inhibition test. This test is designed to measure the fungitoxic activity of fungicidal chemicals in terms of their degree of inhibition of mycelium growth. Each compound to be tested was dissolved in acetone to 500 ppm concentration. Paper strips were infused with the particular mycelium growth by covering the paper with a potato dextrose broth culture of mycelial suspension. The papers were then placed on potato dextrose agar plates and sprayed by means of a microsprayer with the fungicidal solution. The treated paper strips were incubated at 25° C. and the data is taken after 24 hours. Fungicidal activities are measured by a zone of inhibited mycelial growth from the center of the paper strip. The effectiveness of the compounds tested for fungicidal activity is reported in Table IIa for those compounds which were effective in inhibiting mycelial growth. The activity is reported in terms of [formula]

[7] = tested on: Spirulina maxima; assay: Algae control, Spirulina; format: cell-based; settings: Limnospira maxima, 7 to 10 days, read-out: Algicidal Activity % Control Spirulina
Experimental: (§4) Representative compounds of the invention were tested as aquatic herbicides and algicides by the following method. The weed test species were Lemna minor, Elodea canadensis and the algae used was Spirulina maxima.
(§5) An acetone solution of the test compound and a small amount of an alkylarylpolyoxyethylene glycol-containing surfactant was prepared. This solution was mixed with a nutrient solution in quantity sufficient to give a concentration of 2 ppm. Eight oz. plastic cups were filled with 150 ml of this solution. A sample of the test, Lemna and Elodea, was added together to each cup. Forty ml of Spirulina culture with the 2 ppm treatment was placed in 11/2 oz plastic cups (#4 glass vials used after June 9, 1980). The containers were then placed in an illuminated environment maintained at a temperature of about 20° C. for incubation. The containers were observed periodically for growth (as compared to an untreated check). The effectiveness of the test compound was determined based on a final observation of growth after 7 to 10 days. The results of the test on a 0-to-100 basis--0 indicating no effectiveness and 100 indicating complete effectiveness--are reported in Table IV.

[8] = tested on: Pythium Ultimum; assay: Mycelial inhibition, Pythium; format: cell-based; settings: Globisporangium ultimum, 24 hours, relative to standard DIFOLATAN
Experimental: as §3

[9] = tested on: Watergrass (Ethinochloa crusgalli); assay: Pre-emergent herbicidal test, Watergrass; format: in vivo; settings: 504 h; pre-emergence; 33 micrograms/cm^2; 3 weeks
Experimental: as §1, §2

[10] = tested on: Mustard (Brassica arvensis); assay: Pre-emergent herbicidal test, Mustard; format: in vivo; settings: 504 h, pre-emergence, 33 micrograms/cm^2, 3 weeks
Experimental: as §1, §2

[11] = tested on: Soybean; assay: Pre-emergent herbicidal test, Soybean; format: in vivo; settings: Glycine max, 504 h; pre-emergence; 33 micrograms/cm^2; 3 weeks; read-out: Herbicidal Activity Pre-Emergence % Control Soybean
Experimental: as §1, §2

[12] = tested on: Lemna minor; assay: Aquatic weeds control, Lemna; format: in vivo; settings: 7 to 10 days, read-out: Algicidal Activity % Control Lemna
Experimental: as §4, §5

[13] = tested on: Elodea canadensis; assay: Aquatic weeds control, Elodea; format: in vivo; settings: 7 to 10 days, read-out: Algicidal Activity % Control Elodea
Experimental: as §4, §5

[14] = tested on: Crabgrass (Digitaria sanguinalis); assay: Post-emergent herbicidal test, Crabgrass; format: in vivo; settings: 504 h, post-emergence, 33 micrograms/cm^2, 3 weeks
[15] = tested on: Watergrass (Ethinochloa crusgalli); assay: Post-emergent herbicidal test, Watergrass; format: in vivo; settings: 504 h; post-emergence; 33 micrograms/cm^2; 3 weeks
[16] = tested on: Pigweed (Amaranthus retraflexus); assay: Post-emergent herbicidal test, Pigweed; format: in vivo; settings: 504 h, post-emergence, 33 micrograms/cm^2, 3 weeks
[17] = tested on: Mustard (Brassica arvensis); assay: Post-emergent herbicidal test, Mustard; format: in vivo; settings: 504 h, post-emergence, 33 micrograms/cm^2, 3 weeks
[18] = tested on: Rhizoctonia solani; assay: Mycelial inhibition, Rhizoctonia; format: cell-based; settings: 24 hours, relative to standard DIFOLATAN, read-out: Mycelial inhibition, % Standard, Rhizoc.
Experimental: as §3

[19] = tested on: Aspergillus Niger; assay: Mycelial inhibition, Aspergillus; format: cell-based; settings: 24 hours, relative to standard DIFOLATAN, read-out: Mycelial inhibition, % Standard, Asper.
Experimental: as §3

[20] = tested on: Septoria apii; format: in vivo; settings: 250 ppm; celery (Utah) plants
[21] = tested on: Fusarium Moniliforme; assay: Mycelial inhibition, Fusarium; format: cell-based; settings: Fusarium verticillioides, 24 hours, relative to standard DIFOLATAN
Experimental: as §3

[22] = tested on: Pigweed (Amaranthus retraflexus); assay: Pre-emergent herbicidal test, Pigweed; format: in vivo; settings: 504 h, pre-emergence, 33 micrograms/cm^2, 3 weeks
Experimental: as §1, §2

[23] = tested on: Phytophthora infestans; assay: whole plant or invertebrate; format: in vivo; settings: in Solanum lycopersicum, read-out: % Control Tom. L. Bl.

Row | Compound | pest or weed control at 33 µg/cm2 [1] [%] | plant injury at 33 µg/cm2 [2] [%] | pest or weed control at 33 µg/cm2 [3] [%] | pest or weed control at 33 µg/cm2 [4] [%] | pest or weed control at 250 ppm [5] [%] | inhibition at 500 ppm [6] [%] | activity at 2 ppm [7] [%] | inhibition at 500 ppm [8] [%] | pest or weed control at 33 µg/cm2 [9] [%] | pest or weed control at 33 µg/cm2 [10] [%] | plant injury at 33 µg/cm2 [11] [%] | activity at 2 ppm [12] [%] | activity at 2 ppm [13] [%] | pest or weed control at 33 µg/cm2 [14] [%] | pest or weed control at 33 µg/cm2 [15] [%] | pest or weed control at 33 µg/cm2 [16] [%] | pest or weed control at 33 µg/cm2 [17] [%] | inhibition at 500 ppm [18] [%] | inhibition at 500 ppm [19] [%] | % Control Cel. L. Bl. [20] [%] | also measured
1 | CC1(C)N=C(SCSC#N)SC1=CBr [Compound 4] | 0 | 0 | 0 | 0 | 100 | 36 | 30 | 14 | 0 | 0 | 0 | 35 | 80 | 0 | 0 | 0 | 0 | 92 | 63 | 23 | inhibition at 500 ppm [21]: 77%; pest or weed control at 33 µg/cm2 [22]: 0%; pest or weed control at 250 ppm [23]: 0%
2 | CC1(C)N=C(SCSC#N)SC1=CCl [Compound 3] | 0 | 0 | 0 | 25 | 79 | 64 | 40 | 40 | 0 | 15 | 0 | 40 | 90 | 0 | 0 | 0 | 0 | 55 | 69 | 15 | inhibition at 500 ppm [21]: 115%; pest or weed control at 33 µg/cm2 [22]: 35%; pest or weed control at 250 ppm [23]: 21%
